Source: patent US20250235455A1, “AQUEOUS TICAGRELOR SOLUTIONS, METHOD OF MANUFACTURING AND USES” (HYLORIS DEVELOPMENTS SA, priority 2022, published 2025)
Values after ≈ are worked out from the molar mass of the structure shown. Read-outs that look alike come from different tables or passages of the source.

Key:
[1] = phosphate buffered solution pH 7.4, normal laboratory light and temperature; cited from earlier work
[2] = for Appearance, undiluted: 5 mg/ml; for Appearance in 5% dextrose / Appearance in NaCl 0.9%: diluted to 0.1 mg/ml
[3] = Maximum solubility of ticagrelor in HPβCD solution without heat; type: physicochemical; conditions: aqueous with cosolvent or surfactant or cyclodextrin, read-out: Ticagrelor mg/ml (maximum solubility)
Source text: In a further example, the maximum solubility of ticagrelor in an HPβCD solution, without the use of heat, was investigated.

[4] = Clear aqueous ticagrelor-cyclodextrin solutions considering 65 mg dose; type: physicochemical; conditions: using 20-40% w/w HPβCD
[5] = Bulk hold study, ticagrelor 8 mg/ml in 30% w/w HPβCD, phosphate buffer pH 7.5; type: physicochemical
Description: To investigate the impact of temperature and hold time, a new composition was prepared as per below Table 19.
In first step a phosphate buffer at pH 7.5 was prepared and the buffered solution was heated to 40° C.-45° C. HPβCD was added to the buffered solution under continuous mixing. […] It usually took 30 mins to 4 hours depending on batch size.
Then this solution was filtered through a 0.22-micron filter and packed in suitable clear or amber colored glass vials

CCCSc1nc(N[C@@H]2C[C@H]2c2ccc(F)c(F)c2)c2nnn([C@@H]3C[C@H](OCCO)[C@@H](O)[C@H]3O)c2n1 [Ticagrelor, (1S,2S,3R,5S)-3-{7-[(1R,2S)-2-(3,4-difluorophenyl)cyclopropylamino]5-(propylthio)-3H-(1,2,3)triazolo (4,5-D)pyrimidin-3-yl}-5-(2 hydroxyethoxy)cyclopentane-1,2-diol]
Ticagrelor concentration on storage [1]: declined after 1 month | Appearance, undiluted ([2]; HPβCD 22.5% w/w): Turbid; clear after heating to 40 °C | Appearance, undiluted ([2]; HPβCD 25.0% w/w): Turbid; clear after heating to 40 °C | Appearance, undiluted ([2]; HPβCD 27.5% w/w): Turbid; clear after heating to 40 °C | Appearance, undiluted ([2]; HPβCD 30.0% w/w): Clear solution | Appearance, undiluted ([2]; HPβCD 32.5% w/w): Clear solution | Ticagrelor concentration possible to dissolve ([2]; HPβCD 20-40% w/w, without the use of heat): 5 to 15 mg/mL | Appearance in 5% dextrose ([2]; HPβCD 22.5% w/w): Clear solution | Appearance in NaCl 0.9% ([2]; HPβCD 22.5% w/w): Turbid | Appearance in 5% dextrose ([2]; HPβCD 25.0% w/w): Clear solution | Appearance in NaCl 0.9% ([2]; HPβCD 25.0% w/w): Turbid | Appearance in 5% dextrose ([2]; HPβCD 27.5% w/w): Clear solution | Appearance in NaCl 0.9% ([2]; HPβCD 27.5% w/w): Turbid | Appearance in 5% dextrose ([2]; HPβCD 30.0% w/w): Clear solution | Appearance in NaCl 0.9% ([2]; HPβCD 30.0% w/w): Turbid | Appearance in 5% dextrose ([2]; HPβCD 32.5% w/w): Clear solution | Appearance in NaCl 0.9% ([2]; HPβCD 32.5% w/w): Clear solution | Stability of undiluted concentrate in the refrigerator ([2]; HPβCD concentration as low as 22.5% w/w): remained stable | HPβCD required for a clear, storage stable ticagrelor solution ([2]; concentration relevant for injection or intravenous administration): At least 15 % w/w | solubility ([3]; HPβCD solution 17% w/w, HPβCD 17% w/W): 4 mg/mL (≈ 7.65 mM) | solubility ([3]; HPβCD solution 22.5% w/w, HPβCD 22.5% w/W): 5 mg/mL (≈ 9.57 mM) | solubility ([3]; HPβCD solution 30% w/w, HPβCD 30% w/W): 8 mg/mL (≈ 15.3 mM) | solubility ([3]; HPβCD solution 33% w/w, HPβCD 33% w/W): 9 mg/mL (≈ 17.2 mM) | solubility ([3]; HPβCD solution 40% w/w, HPβCD 40% w/W): 13 mg/mL (≈ 24.9 mM) | Ticagrelor solution concentration achieved [4]: 5 to 13 mg/mL | Acetal impurity ([5]; Bulk hold 45° C., T = 1 h): 0.04% | Amine impurity ([5]; Bulk hold 45° C., T = 1 h): 0.05% | Assay Ticagrelor ([5]; Bulk hold 45° C., T = 1 h): 107.87% | Sum Impurities >0.05 ([5]; Bulk hold 45° C., T = 1 h): 0.12% | Total Impurities ([5]; Bulk hold 45° C., T = 1 h): 0.20% | Triol impurity ([5]; Bulk hold 45° C., T = 1 h): 0.04% | Unnamed impurity, relative retention time 1.33 ([5]; Bulk hold 45° C., T = 1 h): 0.07% | Acetal impurity ([5]; Bulk hold 45° C., T = 110 h): 0.04% | Amine impurity ([5]; Bulk hold 45° C., T = 110 h): 0.07% | Assay Ticagrelor ([5]; Bulk hold 45° C., T = 110 h): 109.10% | Sum Impurities >0.05 ([5]; Bulk hold 45° C., T = 110 h): 0.11% | Total Impurities ([5]; Bulk hold 45° C., T = 110 h): 0.28% | Triol impurity ([5]; Bulk hold 45° C., T = 110 h): 0.05% | Unnamed impurity, relative retention time 1.33 ([5]; Bulk hold 45° C., T = 110 h): 0.03% | Acetal impurity ([5]; Bulk hold at 30° C., T0): 0.04% | Amine impurity ([5]; Bulk hold at 30° C., T0): 0.06% | Assay Ticagrelor ([5]; Bulk hold at 30° C., T0): 105.60% | Regiomer impurity ([5]; Bulk hold at 30° C., T0): 0.00% | Sum Impurities >0.05 ([5]; Bulk hold at 30° C., T0): 0.10% | Total Impurities ([5]; Bulk hold at 30° C., T0): 0.21% | Triol impurity ([5]; Bulk hold at 30° C., T0): 0.05% | Acetal impurity ([5]; Bulk hold at 30° C., T4 W): 0.04% | Amine impurity ([5]; Bulk hold at 30° C., T4 W): 0.06% | Assay Ticagrelor ([5]; Bulk hold at 30° C., T4 W): 106.14% | Regiomer impurity ([5]; Bulk hold at 30° C., T4 W): 0.00% | Sum Impurities >0.05 ([5]; Bulk hold at 30° C., T4 W): 0.06% | Total Impurities ([5]; Bulk hold at 30° C., T4 W): 0.21% | Triol impurity ([5]; Bulk hold at 30° C., T4 W): 0.04% | Acetal impurity ([5]; sealed vials, T = 1 M, 25° C.): 0.03% | Amine impurity ([5]; sealed vials, T = 1 M, 25° C.): 0.06% | Assay Ticagrelor ([5]; sealed vials, T = 1 M, 25° C.): 107.22% | Regiomer impurity ([5]; sealed vials, T = 1 M, 25° C.): 0.03% | Sum Impurities >0.05 ([5]; sealed vials, T = 1 M, 25° C.): 0.06% | Total Impurities ([5]; sealed vials, T = 1 M, 25° C.): 0.23% | Triol impurity ([5]; sealed vials, T = 1 M, 25° C.): 0.01% | Unnamed impurity, relative retention time 1.03 ([5]; sealed vials, T = 1 M, 25° C.): 0.02% | Unnamed impurity, relative retention time 1.33 ([5]; sealed vials, T = 1 M, 25° C.): 0.03% | Acetal impurity ([5]; sealed vials, T = 1 M, 40° C.): 0.00% | Amine impurity ([5]; sealed vials, T = 1 M, 40° C.): 0.06% | Assay Ticagrelor ([5]; sealed vials, T = 1 M, 40° C.): 105.16% | Regiomer impurity ([5]; sealed vials, T = 1 M, 40° C.): 0.08% | Sum Impurities >0.05 ([5]; sealed vials, T = 1 M, 40° C.): 0.21% | Total Impurities ([5]; sealed vials, T = 1 M, 40° C.): 0.28% | Triol impurity ([5]; sealed vials, T = 1 M, 40° C.): 0.00% | Unnamed impurity, relative retention time 1.03 ([5]; sealed vials, T = 1 M, 40° C.): 0.02% | Unnamed impurity, relative retention time 1.33 ([5]; sealed vials, T = 1 M, 40° C.): 0.08%
